Drawing on publication PMC10004195, “Novel Dual-Target Kinase Inhibitors of EGFR and ALK Were Designed, Synthesized, and Induced Cell Apoptosis in Non-Small Cell Lung Cancer” (Molecules, 2023), this text covers IC50 for eleven compounds.

One test relates to H522 cells. The experiment in a line: CCK8 antiproliferative assay, H522 cells. The settings on record: Homo sapiens, NCI-H522, 72 h. Format: cell-based. An excerpt:
(§1) The human cancer cell lines (H1975, H2228) used in this study were purchased from the Guangzhou ginny ou biotechnology Co., Ltd. (Guangzhou, China). The human cancer cell lines (NCI-H522) used in this study were purchased from the Shenzhen Haodi Huatuo Biotechnology Co., LTD (Shenzhen, China). The human cancer cell lines (LOVO, HLF, BJ, LO2) used in this study were purchased from the Laboratory Animal Service Center at Sun Yat-sen University (Guangzhou, China). Cell lines were cultivated in 1640 containing 10% (v/v) heat-inactivated fetal bovine serum (FBS), 100 units/mL penicillin, and 100 μg/mL streptomycin. Cell lines LOVO, HLF, BJ, and LO2 were cultivated in DMEM containing 10% (v/v) heat-inactivated fetal bovine serum (FBS), 100 units/mL penicillin, and 100 μg/mL streptomycin.

The next test relates to H2228 (EML4-ALK) cells. The experiment in a line: CCK8 antiproliferative assay, H2228 cells. The class given is cell-based, human. The following applies: read-out: IC50 H2228.
Excerpt: as §1, with “Cell lines were cultivated in 1640 containing 10% (v/v) heat-inactivated fetal bovine serum (FBS), 100 units/mL penicillin, and 100 μg/mL streptomycin.” left out

Test [1] relates to H1975 (EGFR T790M/L858R) cells. Kind of test: CCK8 antiproliferative assay, H1975 cells. The class given is cell-based, human.
Excerpt: as §1, with “Cell lines were cultivated in 1640 containing 10% (v/v) heat-inactivated fetal bovine serum (FBS), 100 units/mL penicillin, and 100 μg/mL streptomycin.” left out
In general terms: Tetrazolium dyes change colour on reduction, which living cells bring about.

Test [2] has as its system HK2 (human kidney proximal convoluted tubule epithelial cells). The experiment in a line: Cytotoxicity test on nontumorigenic cells, HK2. Format: cell-based. The following applies: Homo sapiens, Epithelial cell; HK2, mean ± SE; read-out: Toxicity to normal cells, IC50 HK2. An excerpt: (§2) It is critical to evaluate the balance between the safety and efficacy of drugs for the development of new drugs; thus, we then conducted a cytotoxicity test on […] types of nontumorigenic cell lines from different origins, including LO2 (human normal liver cells), HK2 (human kidney proximal convoluted tubule epithelial cells), HLF (human embryonic lung fibroblast), 293A (human embryonic kidney cells), and HUVEC (human umbilical vein endothelial cells). […] In addition, we evaluated the compound’s safety in vivo by performing acute toxicity tests in mice, and 9j was injected intravenously at concentrations of 100 mg/kg, 150 mg/kg, and 300 mg/kg.
(§3) A total of 7000 cells per well were seeded in a 96-well plate with at least three technical replicates; then, exposed to different concentrations (10, 5, 1, 0.1, 0.05, 0.01 uM) of the test compounds for 72 h. After the treatment, CCK8 (Sigma, St. Louis, MO, USA) was added to each well under sterile conditions (to a final concentration of 10% of the total volume) and the plates were incubated for 2–4 h at 37 °C. Absorbance was measured at 450 nm in a microplate reader.

The test system of test [3] is HUVEC (human umbilical vein endothelial cells). The experiment in a line: Cytotoxicity test on nontumorigenic cells, HUVEC. Format: cell-based. The settings on record: Homo sapiens; HUVEC, mean ± SE; read-out: Toxicity to normal cells, IC50 HUVEC.
Excerpt: as §2, §3

Test [4] relates to HLF (human embryonic lung fibroblast). The experiment in a line: Cytotoxicity test on nontumorigenic cells, HLF. The following applies: Homo sapiens, Fibroblast, read-out: Toxicity to normal cells, IC50 HLF. Format: cell-based.
Excerpt: as §2, §3

In test [5] the test system is 293A (human embryonic kidney cells). The experiment in a line: Cytotoxicity test on nontumorigenic cells, 293A. The class given is cell-based. The following applies: Homo sapiens, 293A, read-out: Toxicity to normal cells, IC50 293A.
Excerpt: as §2, §3

For test [6], the system named is LO2 (human normal liver cells). The experiment in a line: Cytotoxicity test on nontumorigenic cells, LO2. The class given is cell-based. The following applies: Homo sapiens; LO2, mean ± SE; read-out: Toxicity to normal cells, IC50 LO2.
Excerpt: as §2, §3

[7] abbreviates: Homo sapiens, NCI-H2228, 72 h, CCK8 assay, 72 h, H2228 (EML4-ALK).
Setting [8] is: CCK8 assay, 72 h, H1975 (EGFR T790M/L858R), read-out: IC50 H1975.
The mark [9] stands for this setting: Homo sapiens, NCI-H1975, 72 h, CCK8 assay, 72 h, H1975 (EGFR T790M/L858R), read-out: IC50 H1975.

Where two headings read alike, the source gives them in different places.

A word on the IC50: it is the concentration needed to halve the response being measured. `C=CC(=O)Nc1cc(Nc2ncc(Cl)c(Nc3ccccc3[S+]([O-])CC3CC3)n2)c(OC)cc1C1CCN(C)CC1` (stereo not shown) [9b, N-(5-((5-Chloro-4-((2-((cyclopropylmethyl)sulfinyl)phenyl)amino)pyrimidin-2-yl)amino)-4-methoxy-2-(1-methylpiperidin-4-yl)phenyl)acrylamide]: the IC50 with H522 cells is greater than 10000 nM; with H2228 (EML4-ALK) cells (CCK8 assay, 72 h, H2228 (EML4-ALK)), 99 ± 7 nM; with H2228 (EML4-ALK) cells (setting [7]), 98.9 nM; in test [1] (setting [8]), 69 ± 7 nM; in test [1] (setting [9]) it was 68.9 nM.

For `C=CC(=O)Nc1cc(Nc2ncc(Cl)c(Nc3ccccc3[S+]([O-])C(C)C)n2)c(OC)cc1C1CCN(C)CC1` (stereo not shown) [9h, N-(5-((5-Chloro-4-((2-(isopropylsulfinyl)phenyl)amino)pyrimidin-2-yl)amino)-4-methoxy-2-(1-methylpiperidin-4-yl)phenyl)acrylamide], the half-maximal inhibitory concentration (IC50) in the test with H522 cells was greater than 10000 nM; in the test with H2228 (EML4-ALK) cells (setting [7]) it was 76.6 ± 20 nM; in test [1] (setting [8]), 83.9 ± 30 nM; in test [1] (setting [9]), 68.9 to 78.2 nM.

Take `C=CC(=O)Nc1cc(Nc2ncc(Cl)c(Nc3ccc(F)cc3[S+]([O-])CC3CC3)n2)c(OC)cc1C1CCN(C)CC1` (stereo not shown) [9c, N-(5-((5-Chloro-4-((2-((cyclopropylmethyl)sulfinyl)-4-fluorophenyl)amino)pyrimidin-2-yl)amino)-4-methoxy-2-(1-methylpiperidin-4-yl)phenyl)acrylamide]: the IC50 with H522 cells was greater than 10000 nM; in the test on H2228 (EML4-ALK) cells (setting [7]), 103 ± 70 nM; in test [1] (setting [9]), 271 ± 130 nM.

Consider `C=CC(=O)Nc1cc(Nc2ncc(Cl)c(Nc3ccc(Cl)cc3[S+]([O-])CC)n2)c(OC)cc1C1CCN(C)CC1` (stereo not shown) [9g, N-(5-((5-Chloro-4-((4-chloro-2-(ethylsulfinyl)phenyl)amino)pyrimidin-2-yl)amino)-4-methoxy-2-(1-methylpiperidin-4-yl)phenyl)acrylamide], for which the figures for the IC50 (in the test with H522 cells; in the test on H2228 (EML4-ALK) cells (setting [7]); in test [1] (setting [9])) were greater than 10000 nM, 104 ± 50 nM and 69 ± 10 nM, respectively.

As for `Cc1cc(Nc2ncc(Cl)c(Nc3ccccc3S(=O)(=O)C(C)C)n2)c(OC(C)C)cc1C1CCNCC1` [Ceritinib, reference compound], the concentration for half-maximal inhibition (IC50) with H2228 (EML4-ALK) cells (setting [7]) amounted to 22.1 ± 8 nM; in test [1] (setting [9]), 78.3 ± 30 nM.

For the compound `C=CC(=O)Nc1cc(Nc2ncc(Cl)c(Nc3ccccc3[S+]([O-])CC)n2)c(OC)cc1C1CCN(C)CC1` (stereo not shown) [9e, N-(5-((5-Chloro-4-((2-(ethylsulfinyl)phenyl)amino)pyrimidin-2-yl)amino)-4-methoxy-2-(1-methylpiperidin-4-yl)phenyl)acrylamide], the IC50 in the test with H522 cells was greater than 10000 nM; with H2228 (EML4-ALK) cells (setting [7]), 97.7 ± 50 nM; in test [1] (setting [9]) it was 170 ± 20 nM.

With `C=CC(=O)Nc1cc(Nc2ncc(Cl)c(Nc3ccc(Cl)cc3[S+]([O-])CC3CC3)n2)c(OC)cc1C1CCN(C)CC1` (stereo not shown) [9d, N-(5-((5-Chloro-4-((4-chloro-2-((cyclopropylmethyl)sulfinyl)phenyl)amino)pyrimidin-2-yl)amino)-4-methoxy-2-(1-methylpiperidin-4-yl)phenyl)acrylamide], the IC50 in the test on H522 cells is greater than 10000 nM; in the test on H2228 (EML4-ALK) cells (setting [7]), 89 ± 30 nM; in test [1] (setting [9]) it was 114 ± 80 nM.

For `C=CC(=O)Nc1cc(Nc2ncc(Cl)c(Nc3ccccc3[S+]([O-])C3CC3)n2)c(OC)cc1C1CCN(C)CC1` (stereo not shown) [9a, N-(5-((5-Chloro-4-((2-(cyclopropylsulfinyl)phenyl)amino)pyrimidin-2-yl)amino)-4-methoxy-2-(1-methylpiperidin-4-yl)phenyl)acrylamide], the IC50 was greater than 10000 nM in the test on H522 cells, 121 ± 90 nM with H2228 (EML4-ALK) cells (setting [7]) and 451 ± 70 nM in test [1] (setting [9]).

As for `C=CC(=O)Nc1cc(Nc2ncc(Cl)c(Nc3ccc(F)cc3[S+]([O-])C(C)C)n2)c(OC)cc1C1CCN(C)CC1` (stereo not shown) [9i, N-(5-((5-Chloro-4-((4-fluoro-2-(isopropylsulfinyl)phenyl)amino)pyrimidin-2-yl)amino)-4-methoxy-2-(1-methylpiperidin-4-yl)phenyl)acrylamide], the half-inhibitory concentration (IC50) was greater than 10000 nM with H522 cells, 98.1 ± 60 nM in the test with H2228 (EML4-ALK) cells (setting [7]) and 309 ± 110 nM in test [1] (setting [9]).

On to `C=CC(=O)Nc1cc(Nc2nccc(-c3cn(C)c4ccccc34)n2)c(OC)cc1N(C)CCN(C)C` [Osimertinib, reference compound], for which the half-inhibitory concentration (IC50) in test [2] worked out at 2130 ± 90 nM; in the test on H2228 (EML4-ALK) cells (Homo sapiens, NCI-H2228, 72 h), 2016 ± 8 nM; in test [3], 4340 ± 10 nM; in test [1] (Homo sapiens, NCI-H1975, 72 h, read-out: IC50 H1975), 4.1 ± 1 nM; in test [1] (Homo sapiens, NCI-H1975, read-out: IC50 H1975 (Table 2)), 4.1 ± 1 nM; in test [4] it was 3240 ± 80 nM. The IC50 in test [5] stood at 2250 ± 20 nM; in test [6], 1720 ± 50 nM.

Turning to `C=CC(=O)Nc1cc(Nc2ncc(Cl)c(Nc3ccc(F)cc3[S+]([O-])CC)n2)c(OC)cc1C1CCN(C)CC1` (stereo not shown) [9f, N-(5-((5-Chloro-4-((2-(ethylsulfinyl)-4-fluorophenyl)amino)pyrimidin-2-yl)amino)-4-methoxy-2-(1-methylpiperidin-4-yl)phenyl)acrylamide], the IC50 in the test with H522 cells is greater than 10000 nM; with H2228 (EML4-ALK) cells (setting [7]), 92.8 ± 60 nM; in test [1] (setting [9]), 550 ± 90 nM.
